This is an account of results in ChEMBL document CHEMBL3351527, “Multitarget drug design strategy: quinone-tacrine hybrids designed to block amyloid-β aggregation and to exert anticholinesterase and antioxidant effects” (J Med Chem, 2014).

The source made the active and inactive calls. The calls are words filed in the database; no cut-off is given here.

Data set [1] can be described thus: Cytotoxicity against mouse Neuro2a cells assessed as reduction in cell viability after 24 hrs by MTT assay. It counts as cell-based. To be noted: n2a. Background: Formazan colour is commonly taken as a measure of viable cells.
A short description of data set [2]: Cytotoxicity against rat CGN cells assessed as reduction in cell viability after 24 hrs by MTT assay. It counts as cell-based.
Data set [3] has as its target Acetylcholinesterase (Homo sapiens, UniProt P22303).
Description: Inhibition of human recombinant AChE after 5 mins by Ellman method
Data set [4] has as its target Cholinesterase (Homo sapiens, UniProt P06276).
Description: Inhibition of human plasmatic BChE after 5 mins by Ellman method
Data set [5] in a line: Cytotoxicity against mouse Neuro2a cells assessed as cell viability at 12.5 uM after 24 hrs by MTT assay relative to control. It counts as cell-based, N2a. Particulars: read-out: Activity.
Data set [6] in a line: Cytotoxicity against rat CGN cells assessed as cell viability at 12.5 uM after 24 hrs by MTT assay relative to control. It counts as cell-based. Particulars: read-out: Activity.
For data set [7], the system named is N2a. Kind of data set: Neuroprotective effect in amyloid beta-stimulated mouse Neuro2a cells assessed as increase in cell viability at 12.5 uM after 24 hrs by MTT assay. It counts as functional, cell-based.
In data set [8] the test system is T67. In words: Antioxidant activity in tert-butyl hydroperoxide-stimulated human T67 cells assessed as reduction in intracellular ROS production at 10 uM after 24 hrs by spectrophotometry. It counts as functional, cell-based.
For data set [9], the system named is T67. Kind of data set: Antioxidant activity in tert-butyl hydroperoxide-stimulated human T67 cells assessed as reduction in intracellular ROS production at 10 uM after 24 hrs by spectrophotometry in presence of sulforaphane. It counts as functional, cell-based.
Data set [10] relates to Rattus norvegicus. Kind of data set: Ex vivo inhibition of AChE in ip dosed Wistar rat telencephalon measured 1 hr post dose by colorimetric method. It counts as functional, organism-based.
The subject of data set [11] is Rattus norvegicus. Kind of data set: Ex vivo inhibition of AChE in Wistar rat cerebellum at 10 or 50 umol/kg, ip measured 1 hr post dose by colorimetric method. It counts as functional, organism-based.
Data set [12] relates to HepG2. In words: Hepatotoxicity in human HepG2 cells assessed as reduction in cell viability at 12.5 to 50 uM after 24 hrs by MTT assay. It counts as toxicity, cell-based. Particulars: hepg2, 24 h.

Chain of Acetylcholinesterase (P22303 whole entry): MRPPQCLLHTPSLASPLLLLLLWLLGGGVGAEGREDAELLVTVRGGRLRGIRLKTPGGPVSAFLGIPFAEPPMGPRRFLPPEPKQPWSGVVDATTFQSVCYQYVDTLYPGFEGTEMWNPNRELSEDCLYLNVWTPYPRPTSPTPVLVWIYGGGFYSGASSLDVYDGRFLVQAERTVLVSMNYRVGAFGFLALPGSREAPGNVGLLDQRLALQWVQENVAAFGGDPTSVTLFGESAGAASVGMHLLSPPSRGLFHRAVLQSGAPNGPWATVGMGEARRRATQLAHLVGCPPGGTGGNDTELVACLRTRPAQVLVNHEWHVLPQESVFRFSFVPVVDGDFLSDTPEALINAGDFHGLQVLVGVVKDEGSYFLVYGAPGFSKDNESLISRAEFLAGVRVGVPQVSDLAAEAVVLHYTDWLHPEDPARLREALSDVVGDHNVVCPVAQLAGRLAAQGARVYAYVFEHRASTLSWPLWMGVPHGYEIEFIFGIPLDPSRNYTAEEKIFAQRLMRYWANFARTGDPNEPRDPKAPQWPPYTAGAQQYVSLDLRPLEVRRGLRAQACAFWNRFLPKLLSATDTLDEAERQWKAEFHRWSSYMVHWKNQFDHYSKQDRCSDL
Chain of Cholinesterase (P06276 whole entry): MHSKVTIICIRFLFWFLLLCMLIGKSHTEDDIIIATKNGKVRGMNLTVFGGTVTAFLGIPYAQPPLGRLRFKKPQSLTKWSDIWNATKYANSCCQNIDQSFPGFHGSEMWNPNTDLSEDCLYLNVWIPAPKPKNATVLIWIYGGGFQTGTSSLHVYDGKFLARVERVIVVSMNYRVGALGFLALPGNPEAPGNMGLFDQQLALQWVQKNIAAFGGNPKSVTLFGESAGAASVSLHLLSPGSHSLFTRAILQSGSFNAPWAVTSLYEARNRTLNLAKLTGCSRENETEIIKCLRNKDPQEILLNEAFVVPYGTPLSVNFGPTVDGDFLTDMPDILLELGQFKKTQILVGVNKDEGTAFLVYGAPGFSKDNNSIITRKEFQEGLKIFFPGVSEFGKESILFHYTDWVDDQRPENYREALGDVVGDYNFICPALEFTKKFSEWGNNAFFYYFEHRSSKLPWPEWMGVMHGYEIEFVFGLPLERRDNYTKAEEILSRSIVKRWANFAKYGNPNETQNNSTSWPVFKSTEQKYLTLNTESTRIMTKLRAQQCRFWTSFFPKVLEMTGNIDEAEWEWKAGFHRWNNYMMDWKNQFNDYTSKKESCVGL

As to `COc1ccc2nc3c(c(NCCNC4=CC(=O)c5c(O)cccc5C4=O)c2c1)CCCC3`, the Activity entry in [1] and in [2] was “Toxic” in each case. Moreover, the figures for the IC50 in data set [3] and in data set [4] were 651 nM and 1280 nM, respectively.
`O=C1C=C(NCCCNc2c3c(nc4ccccc24)CCCC3)C(=O)c2ccccc21`: the values for the Activity entry in data set [1] and in data set [2] were “Non-toxic” and “Toxic”, respectively. For the same compound, the figures for the IC50 in [3] and in data set [4] were 53.7 nM and 19.1 nM, respectively.
With `O=C1C(Cl)=C(NCCNc2c3c(nc4ccccc24)CCCC3)C(=O)c2ccccc21`, the Activity entry in [1] and in [2] was “Toxic” throughout. The IC50 in data set [3] and in data set [4] was 96.1 nM in each case.
For `O=C1C=C(NCCNc2c3c(nc4cc(Cl)ccc24)CCCC3)C(=O)c2ccccc21`, the Activity entry in data set [1] was “Non-toxic”; in [2] it was “Toxic”; in data set [12], “Non-toxic”. Further, the viability at 24 h, 12.5 µM in data set [5] turned out to be 105%; in [6], 75%. Also, the outcome in [7] and in data set [9] was Active. In addition, the result in data set [8] was inactive. The inhibition result in data set [10] is “Dose-dependent effect”. The inhibition entry in data set [11] was “inactive”. The IC50 (commonly the concentration that gives 50% inhibition) in [3] came out at 1.93 nM; in data set [4], 256 nM.
For `O=C1C(NCCCNc2c3c(nc4cc(Cl)ccc24)CCCC3)=CC(=O)c2c(O)cccc21`, the Activity result in data set [1] and in data set [2] was “Toxic” throughout. Besides, the IC50 in data set [3] was 9.24 nM; in data set [4], 258 nM.
Regarding `COc1ccc2nc3c(c(NCCNC4=C(Cl)C(=O)c5ccccc5C4=O)c2c1)CCCC3`, the Activity entry in data set [1] and in data set [2] was “Toxic” each time. Also, the IC50 in data set [3] came out at 1370 nM; in data set [4] it was 970 nM.
In the case of `O=C1C(Cl)=C(NCCNc2c3c(nc4cc(Cl)ccc24)CCCC3)C(=O)c2ccccc21`, the Activity entry in data set [1] and in [2] was “Toxic” throughout. For the same compound, the IC50 turned out to be 3.21 nM in [3] and 287 nM in data set [4].
On to `O=C1C(NCCNc2c3c(nc4cc(Cl)ccc24)CCCC3)=CC(=O)c2c(O)cccc21`, for which the Activity result in data set [1] and in data set [2] was “Toxic” throughout. In addition, the viability at 24 h, 12.5 µM was determined as 85.6% in data set [5] and 73.5% in data set [6]. Moreover, the result in data set [7] and in data set [9] was Active. Besides, in data set [8], the outcome was inactive. The inhibition entry in [10] is “Dose-dependent effect”. Moreover, in [11], the inhibition entry is “inactive”. Besides, the IC50 in [3] stood at 0.72 nM; in data set [4], 542 nM.
Regarding `O=C1C=C(NCCCNc2c3c(nc4cc(Cl)ccc24)CCCC3)C(=O)c2ccccc21`, the Activity entry is “Non-toxic” in data set [1] and “Toxic” in [2]. Also, the IC50 came to 5.4 nM in data set [3] and 197 nM in data set [4].
Take `O=C1C=C(NCCNc2c3c(nc4ccccc24)CCCC3)C(=O)c2ccccc21`: the Activity entry in data set [1] is on record as “Non-toxic”; in data set [2] it was “Toxic”. Further, the IC50 in data set [3] stood at 14.3 nM; in [4], 5.45 nM.
For `O=C1C(Cl)=C(NCCCNc2c3c(nc4ccccc24)CCCC3)C(=O)c2ccccc21`, in that order: “Toxic”, “Toxic”, 38 nM and 47.8 nM.
Take `O=C1C(Cl)=C(NCCCNc2c3c(nc4cc(Cl)ccc24)CCCC3)C(=O)c2ccccc21`: the Activity result in [1] and in [2] was “Toxic” each time. Also, the IC50 in data set [3] was found to be 8.94 nM; in data set [4], 234 nM.
For the compound `COc1ccc2nc3c(c(NCCCNC4=CC(=O)c5c(O)cccc5C4=O)c2c1)CCCC3`, the Activity result in [1] and in data set [2] was “Toxic” throughout. For the same compound, the IC50 in data set [3] came to 348 nM; in [4], 329 nM.
`COc1ccc2nc3c(c(NCCCNC4=CC(=O)c5ccccc5C4=O)c2c1)CCCC3`: the Activity result in data set [1] is “Non-toxic”; in data set [2], “Toxic”. Also, the IC50 was determined as 6150 nM in data set [3] and 635 nM in data set [4].
As for `O=C1C(NCCCNc2c3c(nc4ccccc24)CCCC3)=CC(=O)c2c(O)cccc21`, the Activity result in data set [1] and in [2] was “Toxic” throughout. Also, the IC50 came to 103 nM in data set [3] and 14.5 nM in data set [4].
In the case of `COc1ccc2nc3c(c(NCCNC4=CC(=O)c5ccccc5C4=O)c2c1)CCCC3`, the Activity entry in data set [1] and in data set [2] was “Toxic” each time. Moreover, the results for the IC50 in data set [3] and in data set [4] were 2530 nM and 501 nM, respectively.
As to `O=C1C(NCCNc2c3c(nc4ccccc24)CCCC3)=CC(=O)c2c(O)cccc21`, the Activity entry in data set [1] and in data set [2] was “Toxic” each time. Moreover, the IC50 in [3] is 24.7 nM; in data set [4] it was 41.4 nM.
Take `COc1ccc2nc3c(c(NCCCNC4=C(Cl)C(=O)c5ccccc5C4=O)c2c1)CCCC3`: the Activity entry in [1] and in data set [2] was “Toxic” each time. Also, the IC50 in [3] turned out to be 809 nM; in data set [4] it was 742 nM.
